The supplement of paper PMC8960247
Counter-ions that a name gives are not always drawn. ± gives the standard error.
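Further: immortalized renal angiomyolipoma cells stably carrying empty vector or TSC2, dosed in 384-well plates in DMEM, viability normalized to vehicle-treated wells within each plate.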

What follows are molecules tested on 621-103 (TSC2-rescued) (assay: relative viability vs DMSO; higher = less cytotoxic). Conditions: 0.1 µM; serum: 10% FBS; 72 h.
`CC1(C)CCC(c2ccc(Cl)cc2)=C(CN2CCN(c3ccc(C(=O)NS(=O)(=O)c4ccc(N[C@H](CCN5CCOCC5)CSc5ccccc5)c(S(=O)(=O)C(F)(F)F)c4)cc3)CC2)C1` [ABT-263 (Navitoclax)] showed a relative viability of 98.6 ± 2%. `COc1ccc(S(=O)(=O)Nc2cccnc2Nc2ccc(O)cc2)cc1` [ABT-751] was tested, and the relative viability was 98 ± 1.5%. `Cc1ccc(F)c(NC(=O)Nc2ccc(-c3cccc4[nH]nc(N)c34)cc2)c1` [ABT-869] gave a relative viability of 107 ± 3.4%. For `C[C@]1(c2nc3c(C(N)=O)cccc3[nH]2)CCCN1` [ABT-888], the relative viability was 104.7 ± 0.51%. For `CC(C)(C)c1cc(NC(=O)Nc2ccc(-c3cn4c(n3)sc3cc(OCCN5CCOCC5)ccc34)cc2)no1` [AC-220], the relative viability was 97.8 ± 2.8%. `N#C/C(=C\c1ccc(O)c(O)c1)C(=O)NCc1ccccc1` [AG-490] gave a relative viability of 114 ± 1.2%. `Cc1csc(-c2nnc(Nc3ccc(Oc4ncccc4-c4ccnc(N)n4)cc3)c3ccccc23)c1` [AMG900] gave a relative viability of 77.7 ± 1.1%. In the case of `CC(C)[C@H](C(=O)Nc1ccc(C(=O)NO)cc1)c1ccccc1` [AR-42 (HDAC-42)], the relative viability is reported as 83.4 ± 3.6%. Molecule `Clc1ccc(C2(c3ccc(-c4cn[nH]c4)cc3)CCNCC2)cc1` [AT7867] has a relative viability of 94.3 ± 6.7%. In the case of `COc1cc2nccc(Oc3ccc(NC(=O)Nc4cc(C)on4)c(Cl)c3)c2cc1OC` [AV-951(Tivozanib)], the relative viability is reported as 99.26 ± 0.52%. With `Cc1cc(Nc2nc(N[C@@H](C)c3ccc(F)cc3)c(C#N)cc2F)n[nH]1` [AZ 960] the relative viability was 92.44 ± 0.84%. `CCN(CCO)CCCOc1ccc2c(Nc3cc(CC(=O)Nc4cccc(F)c4)[nH]n3)ncnc2c1` [AZD1152-HQPA (Barasertib)] showed a relative viability of 91.9 ± 3.1%. Molecule `Cc1cc(Nc2nc(N[C@@H](C)c3ncc(F)cn3)ncc2Cl)[nH]n1` [AZD1480] has a relative viability of 92.2 ± 2.8%. For `O=C(c1cc(Cc2n[nH]c(=O)c3ccccc23)ccc1F)N1CCN(C(=O)C2CC2)CC1` [AZD2281 (Olaparib)], the relative viability was 99.6 ± 3.1%. `Cc1ncc(-c2ccnc(Nc3ccc(S(C)(=O)=O)cc3)n2)n1C(C)C` [AZD5438] showed a relative viability of 108 ± 1.6%. `Cn1cnc2c(F)c(Nc3ccc(Br)cc3Cl)c(C(=O)NOCCO)cc21` [AZD6244 (Selumetinib)] was tested, and the relative viability was 106 ± 1.1%. `COc1ccc(-c2ccc3c(N4CCOC[C@@H]4C)nc(N4CCOC[C@@H]4C)nc3n2)cc1CO` [AZD8055] was tested, and the relative viability was 48.4 ± 0.71%. `Cc1cc(C(=O)NOCCO)c(Nc2ccc(I)cc2F)n(C)c1=O` [AZD8330] showed a relative viability of 93.1 ± 2.1%. With `CNC(=O)CN1CCC(Oc2cc3c(Nc4cccc(Cl)c4F)ncnc3cc2OC)CC1` [AZD8931] the relative viability was 100.3 ± 0.18%. `CC(=O)O[C@H]1CC[C@@]2(C)C(=CC[C@@H]3[C@@H]2CC[C@]2(C)C(c4cccnc4)=CC[C@@H]32)C1` [Abiraterone Acetate (CB7630)] was tested, and the relative viability was 111 ± 5.3%. For `CC(=O)Nc1ccccc1` [Acetanilide], the relative viability was 101 ± 4.2%. `Nc1[nH]cnc2ncnc1-2` [Adenine HCl] showed a relative viability of 102.9 ± 0.83%. `Nc1[nH]cnc2ncnc1-2` [Adenine] gave a relative viability of 97.3 ± 1.1%. Molecule `COc1cccc2c1C(=O)c1c(O)c3c(c(O)c1C2=O)C[C@@](O)(C(=O)CO)C[C@@H]3O[C@H]1C[C@H](N)[C@H](O)[C@H](C)O1` [Adriamycin] has a relative viability of 60.3 ± 1.4%. For `NCCCC(O)(P(=O)(O)O)P(=O)(O)O` [Alendronate Sodium], the relative viability was 105.54 ± 0.079%. `COCCCOc1cc(C[C@@H](C[C@H](N)[C@@H](O)C[C@H](C(=O)NCC(C)(C)C(N)=O)C(C)C)C(C)C)ccc1OC` [Aliskiren hemifumarate] showed a relative viability of 94.7 ± 4.8%. Work on `O=C1c2ccccc2C(=O)c2c1ccc(O)c2O` [Alizarin] yielded a relative viability of 99.9 ± 3.2%. Work on `Oc1ncnc2[nH]ncc12` [Allopurinol] yielded a relative viability of 98.7 ± 3.6%. `NC12CC3CC(CC(C3)C1)C2` [Amantadine HCl (Symmetrel)] was tested, and the relative viability was 111 ± 3.6%. In the case of `CC(NC(C)(C)C)C(=O)c1cccc(Cl)c1` (stereo not drawn) [Amfebutamone], the relative viability is reported as 101 ± 2.8%. In the case of `CCN1CCCC1CNC(=O)c1cc(S(=O)(=O)CC)c(N)cc1OC` (stereo not drawn) [Amisulpride], the relative viability is reported as 103.5 ± 0.35%. Molecule `CCOC(=O)C1=C(COCCN)NC(C)=C(C(=O)OC)C1c1ccccc1Cl` (stereo not drawn) [Amlodipine besylate] has a relative viability of 102 ± 9%. Molecule `CC(C)(C#N)c1cc(Cn2cncn2)cc(C(C)(C)C#N)c1` [Anastrozole (Arimidex)] has a relative viability of 103.6 ± 0.71%. `N#CC1(c2ccc(NC(=O)c3cccnc3NCc3ccncc3)cc2)CCCC1` [Apatinib] showed a relative viability of 107 ± 2.4%. In the case of `O=c1cc(-c2ccc(O)cc2)oc2cc(O)cc(O)c12` [Apigenin], the relative viability is reported as 115 ± 4.3%. Molecule `COc1ccc(-n2nc(C(N)=O)c3c2C(=O)N(c2ccc(N4CCCCC4=O)cc2)CC3)cc1` [Apixaban] has a relative viability of 110 ± 3.2%. In the case of `COc1cc(OC)c(OC)cc1C=O` [Asaraldehyde], the relative viability is reported as 99.98 ± 0.77%. In the case of `CN1CC2c3ccccc3Oc3ccc(Cl)cc3C2C1` (stereo not drawn) [Asenapine maleate], the relative viability is reported as 112 ± 5%. Molecule `CN1[C@@H]2CC[C@H]1C[C@@H](OC(=O)C(CO)c1ccccc1)C2` (stereo partly drawn) [Atropine sulfate monohydrate] has a relative viability of 97.9 ± 6.4%.

Same assay, conditions: 1 µM; serum: 10% FBS; 72 h
`CC1(C)CCC(c2ccc(Cl)cc2)=C(CN2CCN(c3ccc(C(=O)NS(=O)(=O)c4ccc(N[C@H](CCN5CCOCC5)CSc5ccccc5)c(S(=O)(=O)C(F)(F)F)c4)cc3)CC2)C1` [ABT-263 (Navitoclax)] showed a relative viability of 97.65 ± 0.41%. `COc1ccc(S(=O)(=O)Nc2cccnc2Nc2ccc(O)cc2)cc1` [ABT-751] was tested, and the relative viability was 44.2 ± 2.2%. In the case of `Cc1ccc(F)c(NC(=O)Nc2ccc(-c3cccc4[nH]nc(N)c34)cc2)c1` [ABT-869], the relative viability is reported as 109.7 ± 0.82%. Work on `C[C@]1(c2nc3c(C(N)=O)cccc3[nH]2)CCCN1` [ABT-888] yielded a relative viability of 105 ± 1.5%. `CC(C)(C)c1cc(NC(=O)Nc2ccc(-c3cn4c(n3)sc3cc(OCCN5CCOCC5)ccc34)cc2)no1` [AC-220] was tested, and the relative viability was 76.5 ± 4.7%. For `N#C/C(=C\c1ccc(O)c(O)c1)C(=O)NCc1ccccc1` [AG-490], the relative viability was 107 ± 1%. Molecule `Cc1csc(-c2nnc(Nc3ccc(Oc4ncccc4-c4ccnc(N)n4)cc3)c3ccccc23)c1` [AMG900] has a relative viability of 65.8 ± 2.5%. `CC(C)[C@H](C(=O)Nc1ccc(C(=O)NO)cc1)c1ccccc1` [AR-42 (HDAC-42)] was tested, and the relative viability was 41.07 ± 0.079%. Molecule `Clc1ccc(C2(c3ccc(-c4cn[nH]c4)cc3)CCNCC2)cc1` [AT7867] has a relative viability of 75.1 ± 5.7%. Molecule `COc1cc2nccc(Oc3ccc(NC(=O)Nc4cc(C)on4)c(Cl)c3)c2cc1OC` [AV-951(Tivozanib)] has a relative viability of 102 ± 2.4%. Work on `Cc1cc(Nc2nc(N[C@@H](C)c3ccc(F)cc3)c(C#N)cc2F)n[nH]1` [AZ 960] yielded a relative viability of 62.82 ± 0.16%. With `CCN(CCO)CCCOc1ccc2c(Nc3cc(CC(=O)Nc4cccc(F)c4)[nH]n3)ncnc2c1` [AZD1152-HQPA (Barasertib)] the relative viability was 84.56 ± 0.56%. Work on `Cc1cc(Nc2nc(N[C@@H](C)c3ncc(F)cn3)ncc2Cl)[nH]n1` [AZD1480] yielded a relative viability of 89.4 ± 2.6%. In the case of `O=C(c1cc(Cc2n[nH]c(=O)c3ccccc23)ccc1F)N1CCN(C(=O)C2CC2)CC1` [AZD2281 (Olaparib)], the relative viability is reported as 104 ± 1.5%. With `Cc1ncc(-c2ccnc(Nc3ccc(S(C)(=O)=O)cc3)n2)n1C(C)C` [AZD5438] the relative viability was 89.4 ± 2.3%. `Cn1cnc2c(F)c(Nc3ccc(Br)cc3Cl)c(C(=O)NOCCO)cc21` [AZD6244 (Selumetinib)] was tested, and the relative viability was 104 ± 2.8%. For `COc1ccc(-c2ccc3c(N4CCOC[C@@H]4C)nc(N4CCOC[C@@H]4C)nc3n2)cc1CO` [AZD8055], the relative viability was 34.6 ± 0.72%. `Cc1cc(C(=O)NOCCO)c(Nc2ccc(I)cc2F)n(C)c1=O` [AZD8330] gave a relative viability of 76.3 ± 0.95%. For `CNC(=O)CN1CCC(Oc2cc3c(Nc4cccc(Cl)c4F)ncnc3cc2OC)CC1` [AZD8931], the relative viability was 99 ± 1.7%.
